Experimental data: US20220153732A1, “PROTEIN SECRETION INHIBITORS” (KEZAR LIFE SCIENCES, priority 2019, published 2022)
Like-named read-outs stand apart in the source and are kept apart here.

Key:
Type in all cases: cell-based
[1] = tested on: PD1-ss+10aa/Gaussia Luciferase; experiment: Dox-Induced PD1-ss-Gluc Assay
How it was run: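 Compounds, diluted in DMSO/media with doxycycline, were added to cells plated a day earlier and kept at 37° C under 5% CO2. The cells stably express a Gaussia luciferase construct fused to PD1-ss+10aa, induced via the T-REx system. Unassigned stereochemistry means mixture data.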

[2] = tested on: human multiple myeloma cell line U266B1; experiment: U266 Cell Viability Assay; settings: U-266, 48 hr, U266B1 cells, Celltiter-Glo, read-out: 48 hr U266 Viability Celltiter-Glo: Mean EC50
How it was run: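 Viability measured by CellTiter-Glo luciferase signal after 48 h compound exposure (37 °C, 5% CO2) of U266B1 cells in 384-well format. Where stereochemistry is not shown, data refer to the stereoisomer mixture.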

[3] = tested on: HER3-ss+4aa/Gaussia Luciferase; experiment: Dox-Induced Her3-ss-Gluc Assay
How it was run: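 Compounds, diluted in DMSO/media containing doxycycline, were incubated at 37° C., 5% CO2 with cells seeded one day earlier. The cells stably express HER3-ss+4aa/Gaussia luciferase under T-REx control. Where no stereochemistry is shown, data refer to the mixture of stereoisomers.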

[4] = tested on: human multiple myeloma cell line NCI-H929; experiment: H929 Cell Viability Assay; settings: 48 hr, NCI-H929 cells, Celltiter-Glo, read-out: 48 hr H929 Viability Celltiter-Glo: Mean EC50
Description: Plates were incubated at 37° C., 5% CO2 for 48 hours. After 48 hours, Celltiter-Glo® (Promega) was added to each well and luciferase signal was quantified using Tecan Infinite M1000 Pro for cell viability determination.
For chemical structures that include one or more stereoisomers, but are illustrated without indicating stereochemistry, the assay data refers to a mixture of stereoisomers.

[5] = tested on: TNFα-FL/Gaussia Luciferase; experiment: Dox Induced TNFα-FL-Gluc Assay
How it was run: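 Compounds were added in doxycycline-containing DMSO/media to cells plated the previous day and incubated at 37° C under 5% CO2. These cells stably express a TNFα-FL/Gaussia luciferase cDNA whose expression is under T-REx (Dox-inducible) control, selected with Hygromycin and Blasticidin.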

[6] = tested on: IL-2-FL/Gaussia Luciferase; experiment: Dox Induced IL2-FL-Gluc Assay
How it was run: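 Compounds were added together with doxycycline in DMSO/media and incubated at 37° C., 5% CO2. The cells were a stably selected line carrying IL-2-FL/Gaussia luciferase under T-REx inducible control. Structures drawn without stereochemistry were tested as stereoisomer mixtures.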

[7] = 24 hr, doxycycline-induced, 293FRT/TO cells; read-out: 24 hr Dox Inducible PD1ssGluc 293FRT/TO: Mean IC50
[8] = 24 hr, doxycycline-induced, 293FRT/TO cells; read-out: 24 hr Dox Inducible Her3(ss + 4)Gluc 293FRT/TO: Mean IC50
[9] = 24 hr, doxycycline-induced, 293FRT/TO cells; read-out: 24 hr Dox Inducible TNFaFLGluc 293FRT/TO: Mean IC50
[10] = 24 hr, doxycycline-induced, 293FRT/TO cells; read-out: 24 hr Dox Inducible IL2FLGIuc 293FRT/TO: Mean IC50
[11] = read-out: 24 hr Dox Inducible PD1ssGluc 293FRT/TO: Mean IC50; 24 hr, doxycycline-induced, 293FRT/TO cells
[12] = read-out: 24 hr Dox Inducible Her3(ss + 4)Gluc 293FRT/TO: Mean IC50; 24 hr, doxycycline-induced, 293FRT/TO cells
[13] = read-out: 24 hr Dox Inducible TNFaFLGluc 293FRT/TO: Mean IC50; 24 hr, doxycycline-induced, 293FRT/TO cells
[14] = read-out: 24 hr Dox Inducible IL2FLGIuc 293FRT/TO: Mean IC50; 24 hr, doxycycline-induced, 293FRT/TO cells

| IC50 [1, 7] | EC50 [2] | IC50 [3, 8] | EC50 [4] | IC50 [5, 9] | IC50 [6, 10] | Compound | IC50 [1, 11] | IC50 [3, 12] | IC50 [5, 13] | IC50 [6, 14] |
| --- | --- | --- | --- | --- | --- | --- | --- | --- | --- | --- |
| 0.017 µM | 15.9 µM | 0.492 µM | 7.18 µM | 3.62 µM | 1.15 µM | O=C(Nc1nc(/C=C/c2ccc(C(F)(F)F)cn2)cs1)c1cccn1Cc1ccncc1 [Compound A343] | – | – | – | – |
| 0.971 µM | > 25 µM | 2.03 µM | > 25 µM | 8.86 µM | 1.35 µM | O=C(Nc1nc(C2[C@@H](O)CCN2c2ccccc2)cs1)c1cccn1Cc1ccncc1 (stereo partly drawn) [Compound A344] | – | – | – | – |
| 0.011 µM | > 25 µM | 0.022 µM | 0.72 µM | 0.1 µM | 0.023 µM | CO[C@@H]1CCN(c2ccccc2)C1c1csc(NC(=O)c2cccn2Cc2ccncc2)n1 (stereo partly drawn) [Compound A345] | – | – | – | – |
| 0.017 µM | > 25 µM | 0.022 µM | 0.972 µM | 0.092 µM | 0.02 µM | CC(C)O[C@@H]1CC(c2csc(NC(=O)c3cccn3Cc3ccncc3)n2)N(c2ccccc2)C1 (stereo partly drawn) [Compound A346] | – | – | – | – |
| 0.042 µM | 20.3 µM | 6.01 µM | 23.8 µM | 13.1 µM | 9.58 µM | Cc1cccnc1/C=C/c1csc(NC(=O)c2cccn2Cc2ccncc2)n1 [Compound A347] | – | – | – | – |
| > 25 µM | 18.3 µM | > 25 µM | 17 µM | > 25 µM | > 25 µM | CC(C)OC(C)(C)c1csc(NC(=O)c2sccc2-c2ccncc2)n1 [Compound A348] | – | – | – | – |
| 0.364 µM | > 25 µM | 1.26 µM | 12.5 µM | 6.62 µM | 1.7 µM | O=C(Nc1nc([C@H]2C[C@@H](c3ccccn3)C2)cs1)c1cccn1Cc1ccncc1 [Compound A349] | – | – | – | – |
| 0.707 µM | > 25 µM | 2.39 µM | > 25 µM | 14.9 µM | > 25 µM | O=C(Nc1nc([C@H]2C[C@H](c3ccccn3)C2)cs1)c1cccn1Cc1ccncc1 [Compound A350] | – | – | – | – |
| 0.167 µM | > 25 µM | 0.45 µM | 7.5 µM | 0.954 µM | 0.259 µM | O=C(Nc1nc([C@H]2[C@H](O)CCN2c2ccccc2)cs1)c1cccn1Cc1ccncc1 [Compound A351] | – | – | – | – |
| 0.006 µM | > 25 µM | 0.016 µM | 0.901 µM | 0.054 µM | 0.021 µM | O=C(Nc1nc([C@H]2C[C@@H](OC3CCCCC3)CN2c2ccccc2)cs1)c1cccn1Cc1ccncc1 [Compound A354] | – | – | – | – |
| 0.524 µM | 17.2 µM | 3.81 µM | 22.3 µM | 9.74 µM | 11.3 µM | Cc1cccc(/C=C\c2csc(NC(=O)c3cccn3Cc3ccncc3)n2)n1 [Compound A355] | – | – | – | – |
| 0.035 µM | 23.8 µM | 5.41 µM | > 25 µM | 14.4 µM | > 25 µM | Cc1cccc(/C=C/c2csc(NC(=O)c3cccn3Cc3ccncc3)n2)n1 [Compound A356] | – | – | – | – |
| 0.012 µM | 17.9 µM | 2.31 µM | 10.7 µM | 7.48 µM | 9.07 µM | Cc1ccc(/C=C/c2csc(NC(=O)c3cccn3Cc3ccncc3)n2)nc1 [Compound A357] | – | – | – | – |

| Compound | IC50 [1, 7] | EC50 [2] | IC50 [3, 8] | EC50 [4] | IC50 [5, 9] | IC50 [6, 10] | IC50 [1, 11] | IC50 [3, 12] | IC50 [5, 13] | IC50 [6, 14] |
| --- | --- | --- | --- | --- | --- | --- | --- | --- | --- | --- |
| CC(C)(C)[Si](O[C@@H]1CCN(c2ccccc2)[C@@H]1c1csc(NC(=O)c2cccn2Cc2ccncc2)n1)(c1ccccc1)c1ccccc1 [Compound A352] | – | > 25 µM | – | 0.452 µM | – | – | 0.008 µM | 0.019 µM | 0.062 µM | 0.016 µM |
| CC(C)(C)[Si](O[C@H]1CCN(c2ccccc2)[C@@H]1c1csc(NC(=O)c2cccn2Cc2ccncc2)n1)(c1ccccc1)c1ccccc1 [Compound A353] | – | > 25 µM | – | 0.303 µM | – | – | 0.005 µM | 0.012 µM | 0.013 µM | 0.011 µM |
